Data from the kinase profiling compilation of Christmann-Franck et al. (2016).
One block for each molecule: values may come before it.

How the values were obtained:
Experiment in all cases: radiometric filter-binding kinase assay
[1] = target: MAPK10 (human) (UniProt P53779)
[2] = target: IKBKB (human) (UniProt O14920)
[3] = target: PKN2 (human) (UniProt Q16513)
[4] = target: MAP2K1 (human) (UniProt Q02750)
[5] = target: NUAK1 (human) (UniProt O60285)
[6] = target: MAP3K11 (human) (UniProt Q16584)
[7] = target: TAOK1 (human) (UniProt Q7L7X3)
[8] = target: SRC (human) (UniProt P12931)
[9] = target: PAK6 (human) (UniProt Q9NQU5)
[10] = system: ROCK2 (rat); settings: accession and sequence are those of the human protein
[11] = target: RPS6KA3 KD1 KD2 (human) (UniProt P51812)
[12] = target: AURKB (human) (UniProt Q96GD4)
[13] = target: MST4 (human) (UniProt Q9P289)
[14] = system: AKT1 (human), P31749 [S473D]
[15] = target: EPHA4 (human) (UniProt P54764)
[16] = target: EPHB1 (human) (UniProt P54762)
[17] = target: MAP3K7 TAB1 (human) (UniProt Q15750+O43318)
[18] = target: CHEK1 (human) (UniProt O14757)
[19] = target: MAPK8 (human) (UniProt P45983)
[20] = target: GCK (human) (UniProt Q12851)
[21] = system: PAK2 (human), Q13177 [T402E]
[22] = target: TBK1 (human) (UniProt Q9UHD2); settings: compound 10.0 µM
[23] = target: CSK (human) (UniProt P41240)
[24] = target: MINK1 (human) (UniProt Q8N4C8)
[25] = target: CHEK2 (human) (UniProt O96017)
[26] = target: CDK2 CCNA2 (human) (UniProt P20248+P24941)
[27] = target: TTK (human) (UniProt P33981)
[28] = target: EPHB2 (human) (UniProt P29323)
[29] = target: MYLK (human) (UniProt Q15746)
[30] = target: MARK2 (human) (UniProt Q7KZI7)
[31] = target: EPHB3 (human) (UniProt P54753)
[32] = target: PAK4 (human) (UniProt O96013)
[33] = target: CaMK1 (human) (UniProt Q14012)
[34] = system: LCK (mouse); settings: accession and sequence are those of the human protein
[35] = target: EPHA2 (human) (UniProt P29317)
[36] = target: DYRK3 (human) (UniProt O43781)

Chain of PKN2 (human) (Q16513 whole entry, looked up): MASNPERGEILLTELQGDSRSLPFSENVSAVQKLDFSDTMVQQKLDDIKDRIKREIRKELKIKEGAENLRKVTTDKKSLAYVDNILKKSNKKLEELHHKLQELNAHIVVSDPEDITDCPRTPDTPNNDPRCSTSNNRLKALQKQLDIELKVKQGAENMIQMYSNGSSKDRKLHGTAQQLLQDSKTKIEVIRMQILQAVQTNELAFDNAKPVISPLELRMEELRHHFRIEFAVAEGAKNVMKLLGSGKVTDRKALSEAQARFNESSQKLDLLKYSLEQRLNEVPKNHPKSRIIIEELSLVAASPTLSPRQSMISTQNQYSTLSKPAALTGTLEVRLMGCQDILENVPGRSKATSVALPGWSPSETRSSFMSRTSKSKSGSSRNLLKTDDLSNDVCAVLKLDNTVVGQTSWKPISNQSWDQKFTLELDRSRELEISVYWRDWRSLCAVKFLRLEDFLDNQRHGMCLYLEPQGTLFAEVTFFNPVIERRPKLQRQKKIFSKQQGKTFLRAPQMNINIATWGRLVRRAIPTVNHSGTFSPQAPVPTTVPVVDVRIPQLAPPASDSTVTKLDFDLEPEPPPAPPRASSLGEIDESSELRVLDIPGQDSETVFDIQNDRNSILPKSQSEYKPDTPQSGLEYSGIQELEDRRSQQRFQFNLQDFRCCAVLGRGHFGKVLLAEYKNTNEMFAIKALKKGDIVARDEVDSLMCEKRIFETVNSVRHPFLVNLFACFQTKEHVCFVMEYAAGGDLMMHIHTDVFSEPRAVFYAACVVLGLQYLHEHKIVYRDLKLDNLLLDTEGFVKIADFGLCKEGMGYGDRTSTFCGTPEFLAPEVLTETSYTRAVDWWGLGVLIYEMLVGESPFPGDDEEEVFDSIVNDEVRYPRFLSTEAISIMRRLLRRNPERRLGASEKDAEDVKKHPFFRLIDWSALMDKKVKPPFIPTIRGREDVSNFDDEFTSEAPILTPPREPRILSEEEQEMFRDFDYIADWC
Chain of MINK1 (human) (Q8N4C8 whole entry, looked up): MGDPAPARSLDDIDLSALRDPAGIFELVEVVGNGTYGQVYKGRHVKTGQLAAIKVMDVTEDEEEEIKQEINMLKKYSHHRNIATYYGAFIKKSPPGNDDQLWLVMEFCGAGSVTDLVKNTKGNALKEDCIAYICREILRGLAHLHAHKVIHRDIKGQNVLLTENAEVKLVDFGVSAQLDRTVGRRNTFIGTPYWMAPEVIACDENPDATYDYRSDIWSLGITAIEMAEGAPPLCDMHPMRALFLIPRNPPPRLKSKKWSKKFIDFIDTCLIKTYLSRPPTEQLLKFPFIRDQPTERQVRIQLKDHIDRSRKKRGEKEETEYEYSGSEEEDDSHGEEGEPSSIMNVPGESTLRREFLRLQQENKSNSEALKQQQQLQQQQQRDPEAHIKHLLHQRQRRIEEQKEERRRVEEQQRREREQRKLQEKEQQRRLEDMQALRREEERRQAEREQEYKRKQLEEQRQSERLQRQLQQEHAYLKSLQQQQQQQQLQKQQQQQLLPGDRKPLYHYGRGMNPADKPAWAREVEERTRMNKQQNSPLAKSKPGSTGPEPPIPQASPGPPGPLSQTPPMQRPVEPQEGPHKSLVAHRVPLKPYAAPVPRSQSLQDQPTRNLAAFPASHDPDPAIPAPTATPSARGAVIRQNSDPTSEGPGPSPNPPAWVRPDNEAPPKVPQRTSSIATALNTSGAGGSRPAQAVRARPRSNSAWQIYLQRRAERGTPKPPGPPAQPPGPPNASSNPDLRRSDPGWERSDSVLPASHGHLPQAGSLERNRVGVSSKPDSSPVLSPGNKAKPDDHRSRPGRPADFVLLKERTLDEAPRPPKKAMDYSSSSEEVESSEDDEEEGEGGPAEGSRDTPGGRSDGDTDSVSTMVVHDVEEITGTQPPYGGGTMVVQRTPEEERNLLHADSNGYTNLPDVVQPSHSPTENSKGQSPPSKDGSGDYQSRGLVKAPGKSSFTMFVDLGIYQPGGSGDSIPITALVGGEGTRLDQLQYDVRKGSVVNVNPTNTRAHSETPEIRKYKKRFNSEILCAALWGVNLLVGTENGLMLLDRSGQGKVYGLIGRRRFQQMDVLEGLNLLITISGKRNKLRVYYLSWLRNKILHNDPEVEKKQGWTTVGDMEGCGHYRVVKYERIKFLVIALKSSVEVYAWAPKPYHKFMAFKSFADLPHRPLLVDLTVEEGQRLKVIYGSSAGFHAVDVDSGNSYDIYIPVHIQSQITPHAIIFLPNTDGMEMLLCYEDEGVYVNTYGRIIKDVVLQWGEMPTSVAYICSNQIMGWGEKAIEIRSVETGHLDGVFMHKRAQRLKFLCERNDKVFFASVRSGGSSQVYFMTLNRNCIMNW
Chain of PAK2 (human), Q13177 [T402E] (Q13177 whole entry T402E, looked up): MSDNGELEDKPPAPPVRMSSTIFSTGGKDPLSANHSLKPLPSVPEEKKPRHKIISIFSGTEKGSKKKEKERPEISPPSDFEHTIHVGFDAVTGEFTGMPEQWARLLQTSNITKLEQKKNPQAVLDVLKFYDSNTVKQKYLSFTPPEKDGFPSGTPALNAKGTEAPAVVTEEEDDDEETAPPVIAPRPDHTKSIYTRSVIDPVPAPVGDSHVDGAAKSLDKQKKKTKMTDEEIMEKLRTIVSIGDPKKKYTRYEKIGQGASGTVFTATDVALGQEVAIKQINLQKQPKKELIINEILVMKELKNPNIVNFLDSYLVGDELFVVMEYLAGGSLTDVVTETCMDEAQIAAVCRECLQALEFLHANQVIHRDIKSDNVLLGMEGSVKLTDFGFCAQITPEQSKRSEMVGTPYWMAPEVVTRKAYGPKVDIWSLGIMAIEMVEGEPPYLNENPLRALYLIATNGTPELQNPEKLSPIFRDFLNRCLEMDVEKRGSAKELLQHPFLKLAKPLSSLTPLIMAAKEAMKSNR
Chain of CHEK2 (human) (O96017 whole entry, looked up): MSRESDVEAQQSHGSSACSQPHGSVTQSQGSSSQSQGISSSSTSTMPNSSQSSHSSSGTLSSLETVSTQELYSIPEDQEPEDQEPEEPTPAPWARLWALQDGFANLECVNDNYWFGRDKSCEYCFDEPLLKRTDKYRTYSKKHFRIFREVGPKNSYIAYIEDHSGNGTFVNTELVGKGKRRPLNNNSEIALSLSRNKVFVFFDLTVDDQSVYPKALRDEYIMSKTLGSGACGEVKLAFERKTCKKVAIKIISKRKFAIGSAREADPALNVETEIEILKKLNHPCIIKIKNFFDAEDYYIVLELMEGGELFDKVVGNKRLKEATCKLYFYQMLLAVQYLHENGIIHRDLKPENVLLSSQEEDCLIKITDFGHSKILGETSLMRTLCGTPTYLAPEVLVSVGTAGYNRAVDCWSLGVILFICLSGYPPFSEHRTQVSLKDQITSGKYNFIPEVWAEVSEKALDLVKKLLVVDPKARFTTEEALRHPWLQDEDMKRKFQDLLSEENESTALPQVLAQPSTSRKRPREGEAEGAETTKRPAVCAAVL
Chain of EPHA4 (human) (P54764 whole entry, looked up): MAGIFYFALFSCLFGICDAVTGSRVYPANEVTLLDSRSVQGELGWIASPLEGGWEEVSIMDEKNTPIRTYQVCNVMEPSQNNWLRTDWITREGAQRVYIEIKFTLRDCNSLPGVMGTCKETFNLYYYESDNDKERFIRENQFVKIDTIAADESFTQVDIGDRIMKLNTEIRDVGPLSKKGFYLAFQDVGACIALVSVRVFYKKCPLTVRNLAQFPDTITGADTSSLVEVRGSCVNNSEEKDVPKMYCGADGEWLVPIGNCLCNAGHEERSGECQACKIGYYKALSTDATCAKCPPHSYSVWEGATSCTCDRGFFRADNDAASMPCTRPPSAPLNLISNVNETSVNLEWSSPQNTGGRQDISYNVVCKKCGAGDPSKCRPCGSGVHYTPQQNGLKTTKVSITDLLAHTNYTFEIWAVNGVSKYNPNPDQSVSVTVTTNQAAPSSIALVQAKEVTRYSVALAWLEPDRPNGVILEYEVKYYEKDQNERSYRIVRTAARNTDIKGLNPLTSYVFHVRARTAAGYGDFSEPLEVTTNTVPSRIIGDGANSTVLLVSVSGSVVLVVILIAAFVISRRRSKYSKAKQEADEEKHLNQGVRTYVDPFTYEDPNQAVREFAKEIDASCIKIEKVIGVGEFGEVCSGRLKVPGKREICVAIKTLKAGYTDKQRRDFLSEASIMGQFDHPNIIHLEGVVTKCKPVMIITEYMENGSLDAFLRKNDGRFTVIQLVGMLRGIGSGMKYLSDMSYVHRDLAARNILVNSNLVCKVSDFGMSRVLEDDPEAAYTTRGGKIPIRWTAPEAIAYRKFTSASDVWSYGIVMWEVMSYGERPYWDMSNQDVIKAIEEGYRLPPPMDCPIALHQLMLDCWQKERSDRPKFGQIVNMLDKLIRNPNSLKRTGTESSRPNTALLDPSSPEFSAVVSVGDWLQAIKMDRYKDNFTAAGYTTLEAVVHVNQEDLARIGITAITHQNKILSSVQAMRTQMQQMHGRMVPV
Chain of CaMK1 (human) (Q14012 whole entry, looked up): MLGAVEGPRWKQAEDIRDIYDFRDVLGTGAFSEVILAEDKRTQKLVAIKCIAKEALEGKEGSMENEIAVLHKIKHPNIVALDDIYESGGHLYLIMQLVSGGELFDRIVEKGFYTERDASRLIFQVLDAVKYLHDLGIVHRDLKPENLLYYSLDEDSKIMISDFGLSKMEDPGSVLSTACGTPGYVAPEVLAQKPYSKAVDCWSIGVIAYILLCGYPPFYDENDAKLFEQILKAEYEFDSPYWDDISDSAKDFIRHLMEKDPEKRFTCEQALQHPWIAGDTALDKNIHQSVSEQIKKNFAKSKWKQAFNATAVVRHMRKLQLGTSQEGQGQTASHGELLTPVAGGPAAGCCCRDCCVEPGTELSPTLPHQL

residual activity ([1]; compound 1.0 µM): 80%
residual activity ([1]; compound 10.0 µM): 48%
residual activity ([2]; compound 1.0 µM): 97%
residual activity ([2]; compound 10.0 µM): 89%
residual activity ([3]; compound 1.0 µM): 84%
residual activity ([3]; compound 10.0 µM): 82%
residual activity ([4]; compound 1.0 µM): 95%
residual activity ([4]; compound 10.0 µM): 81%
residual activity ([5]; compound 1.0 µM): 41%
residual activity ([5]; compound 10.0 µM): 9%
residual activity ([6]; compound 1.0 µM): 35%
residual activity ([6]; compound 10.0 µM): 9%
residual activity ([7]; compound 1.0 µM): 99%
residual activity ([7]; compound 10.0 µM): 80%
residual activity ([8]; compound 1.0 µM): 107%
residual activity ([8]; compound 10.0 µM): 81%
residual activity ([9]; compound 1.0 µM): 94%
residual activity ([9]; compound 10.0 µM): 94%
residual activity ([10]; compound 1.0 µM): 95%
residual activity ([10]; compound 10.0 µM): 78%
residual activity ([11]; compound 1.0 µM): 77%
residual activity ([11]; compound 10.0 µM): 25%
residual activity ([12]; compound 1.0 µM): 68%
residual activity ([12]; compound 10.0 µM): 24%
residual activity ([13]; compound 1.0 µM): 89%
residual activity ([13]; compound 10.0 µM): 87%
residual activity ([14]; compound 1.0 µM): 93%
residual activity ([14]; compound 10.0 µM): 97%
residual activity ([15]; compound 1.0 µM): 86%
residual activity ([15]; compound 10.0 µM): 98%
residual activity ([16]; compound 1.0 µM): 93%
residual activity ([16]; compound 10.0 µM): 91%
residual activity ([17]; compound 1.0 µM): 11%
residual activity ([17]; compound 10.0 µM): 2%
residual activity ([18]; compound 1.0 µM): 58%
residual activity ([18]; compound 10.0 µM): 25%
residual activity ([19]; compound 1.0 µM): 83%
residual activity ([19]; compound 10.0 µM): 47%
residual activity ([20]; compound 1.0 µM): 73%
residual activity ([20]; compound 10.0 µM): 25%
residual activity ([21]; compound 1.0 µM): 89%
residual activity ([21]; compound 10.0 µM): 88%
residual activity [22]: 26%
residual activity ([23]; compound 1.0 µM): 102%
residual activity ([23]; compound 10.0 µM): 101%
residual activity ([24]; compound 1.0 µM): 124%
residual activity ([24]; compound 10.0 µM): 109%
residual activity ([25]; compound 1.0 µM): 18%
residual activity ([25]; compound 10.0 µM): 3%
residual activity ([26]; compound 1.0 µM): 94%
residual activity ([26]; compound 10.0 µM): 72%
residual activity ([27]; compound 1.0 µM): 56%
residual activity ([27]; compound 10.0 µM): 31%
residual activity ([28]; compound 1.0 µM): 92%
residual activity ([28]; compound 10.0 µM): 97%
residual activity ([29]; compound 1.0 µM): 44%
residual activity ([29]; compound 10.0 µM): 8%
residual activity ([30]; compound 1.0 µM): 100%
residual activity ([30]; compound 10.0 µM): 81%
residual activity ([31]; compound 1.0 µM): 91%
residual activity ([31]; compound 10.0 µM): 105%
residual activity ([32]; compound 1.0 µM): 85%
residual activity ([32]; compound 10.0 µM): 42%
residual activity ([33]; compound 1.0 µM): 92%
residual activity ([33]; compound 10.0 µM): 51%
residual activity ([34]; compound 10.0 µM): 102%
residual activity ([35]; compound 1.0 µM): 81%
residual activity ([35]; compound 10.0 µM): 93%
residual activity ([36]; compound 1.0 µM): 88%
residual activity ([36]; compound 10.0 µM): 51%
SMILES: COc1cc(C(=O)N2CCOCC2)c(F)cc1Nc1ncc(C(F)(F)F)c(NC2CC2)n1

residual activity ([1]; compound 1.0 µM): 81%
residual activity ([1]; compound 10.0 µM): 82%
residual activity ([2]; compound 1.0 µM): 100%
residual activity ([2]; compound 10.0 µM): 96%
residual activity ([3]; compound 1.0 µM): 90%
residual activity ([3]; compound 10.0 µM): 92%
residual activity ([4]; compound 1.0 µM): 95%
residual activity ([4]; compound 10.0 µM): 99%
residual activity ([5]; compound 1.0 µM): 98%
residual activity ([5]; compound 10.0 µM): 96%
residual activity ([6]; compound 1.0 µM): 92%
residual activity ([6]; compound 10.0 µM): 92%
residual activity ([7]; compound 1.0 µM): 104%
residual activity ([7]; compound 10.0 µM): 100%
residual activity ([8]; compound 10.0 µM): 113%
residual activity ([9]; compound 1.0 µM): 94%
residual activity ([9]; compound 10.0 µM): 91%
residual activity ([10]; compound 10.0 µM): 81%
residual activity ([11]; compound 1.0 µM): 100%
residual activity ([11]; compound 10.0 µM): 96%
residual activity ([12]; compound 10.0 µM): 93%
residual activity ([13]; compound 1.0 µM): 83%
residual activity ([13]; compound 10.0 µM): 88%
residual activity ([14]; compound 1.0 µM): 118%
residual activity ([14]; compound 10.0 µM): 119%
residual activity ([15]; compound 10.0 µM): 105%
residual activity ([16]; compound 10.0 µM): 100%
residual activity ([17]; compound 1.0 µM): 107%
residual activity ([17]; compound 10.0 µM): 105%
residual activity ([18]; compound 1.0 µM): 91%
residual activity ([18]; compound 10.0 µM): 98%
residual activity ([19]; compound 1.0 µM): 84%
residual activity ([19]; compound 10.0 µM): 97%
residual activity ([20]; compound 1.0 µM): 91%
residual activity ([20]; compound 10.0 µM): 88%
residual activity ([21]; compound 1.0 µM): 98%
residual activity ([21]; compound 10.0 µM): 93%
residual activity [22]: 88%
residual activity ([23]; compound 1.0 µM): 78%
residual activity ([24]; compound 1.0 µM): 93%
residual activity ([24]; compound 10.0 µM): 96%
residual activity ([25]; compound 10.0 µM): 67%
residual activity ([26]; compound 1.0 µM): 84%
residual activity ([26]; compound 10.0 µM): 90%
residual activity ([27]; compound 1.0 µM): 86%
residual activity ([27]; compound 10.0 µM): 98%
residual activity ([28]; compound 1.0 µM): 107%
residual activity ([28]; compound 10.0 µM): 109%
residual activity ([30]; compound 1.0 µM): 90%
residual activity ([30]; compound 10.0 µM): 88%
residual activity ([31]; compound 10.0 µM): 129%
residual activity ([32]; compound 1.0 µM): 101%
residual activity ([32]; compound 10.0 µM): 106%
residual activity ([33]; compound 1.0 µM): 114%
residual activity ([33]; compound 10.0 µM): 110%
residual activity ([34]; compound 1.0 µM): 98%
residual activity ([34]; compound 10.0 µM): 110%
residual activity ([35]; compound 10.0 µM): 105%
residual activity ([36]; compound 10.0 µM): 84%
SMILES: NS(=O)(=O)OC[C@@H]1C[C@@H](n2ccc3c(N[C@H]4CCc5ccccc54)ncnc32)C[C@@H]1O
